Results on 1 substance are retold here after patent US20250051266A1, “Novel GLV-Phenolamide: Biosynthesis and Function in Protecting Plants from Herbivore Attack” (Max-Planck-Gesellschaft zur Förderung der Wissenschaften …, priority 2021, published 2025).

For one assay, the target named is T1, NaPPO1 (Nicotiana attenuata, UniProt A0A1J6JLI9).
T1 sequence (A0A1J6JLI9 1-596): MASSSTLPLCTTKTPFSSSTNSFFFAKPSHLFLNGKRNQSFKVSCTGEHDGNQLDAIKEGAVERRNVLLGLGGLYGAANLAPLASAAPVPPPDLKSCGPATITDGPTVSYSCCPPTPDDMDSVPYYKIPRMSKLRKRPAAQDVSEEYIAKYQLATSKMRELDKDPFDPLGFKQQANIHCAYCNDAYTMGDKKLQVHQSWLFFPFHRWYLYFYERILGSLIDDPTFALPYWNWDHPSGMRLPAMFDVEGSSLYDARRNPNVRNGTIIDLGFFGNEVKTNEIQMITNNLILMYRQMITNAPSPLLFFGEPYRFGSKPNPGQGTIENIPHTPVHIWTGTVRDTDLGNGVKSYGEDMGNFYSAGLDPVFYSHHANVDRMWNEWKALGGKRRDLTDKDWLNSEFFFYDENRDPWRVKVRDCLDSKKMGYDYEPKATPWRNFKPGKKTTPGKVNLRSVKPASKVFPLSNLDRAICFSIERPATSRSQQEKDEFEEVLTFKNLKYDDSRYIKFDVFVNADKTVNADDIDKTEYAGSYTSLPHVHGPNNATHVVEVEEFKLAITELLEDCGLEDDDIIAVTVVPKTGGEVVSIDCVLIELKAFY
The assay can be described thus: In vitro enzyme assay, substrate specificity of NaPPO1. To be noted: incubated with NaPPO1 and (Z)-3-hexenal. Type of assay: biochemical. The text has this:
(§1) Extracted ion chromatograms (EIC) for doubly charged CP dimer (m/z 250.13) and m/z 347.19 in E. coli expressing NaPPO1 and NaPPO2 with CP and Z3H or (E)-2-hexenal. Compounds 1, 2, 3, 4 denote isomers of CP dimer; compounds 5, 6 denote isomers of m/z 347.19.
(§2) FIG. 53 Substrate specificity of NaPPO1 and NaPPO2 enzymes. Overlay of total ion chromatograms (TIC) of enzyme assays for authentic chlorogenic acid (CGA std), N-coumaroylputrescine (CoP std), (Z)-3-hexenal or (E)-2-hexenal with purified NaPPO1/NaPPO2 from E. coli. Compounds 1 and 2 denote CGA and CoP; 3 and 4 denote contamination peaks from (Z)-3-hexenal and CoP standards, respectively.
(§3) To test this hypothesis, purified NaPPO1, NaPPO2 and NaBBL2 proteins with N-terminal hexahistidine tags after expression in Escherichia coli were isolated (FIGS. 44-45). Incubation of either NaPPO1 or NaPPO2 (NaPPO1/2) with CP and (Z)-3-hexenal yielded a m/z 347.19 peak with identical MS/MS spectrum and retention time as the m/z 347.19 induced in N. attenuata leaves (FIG. 46). Additionally, by-products of doubly charged CP dimers at m/z 250.13 ([M+2H]2+, C26H36N4O62+) which are not detected in oral secretion-induced leaves of N. attenuata WT (Data 2) were also produced in vitro (FIG. 16 and FIG. 47). These doubly charged CP dimers were only produced when the quantities of the (Z)-3-hexenal substrate were lower than those of the CP substrate in vitro. […]
(§4) In vitro assays of NaPPO1, NaPPO2, and NaBBL2: NaPPO1, NaPPO2, and NaBBL2 enzyme activity assays were performed by incubating 100 μg of the purified recombinant protein in 84 mM acetate buffer (pH 4.8) containing 20 mM (E)-N-caffeoylputrescine (BOC Sciences, catalogue #: B0005-053482) and 1 M cis-3-hexenal (Sigma, catalogue #: W256102-SAMPLE-K) or trans-2-hexenal (Sigma, catalogue #: W256005-1KG-K). During incubation of the enzyme reactions at 8° C., 1 μL of the reactions buffer was directly injected and analyzed by LC-MS every h to detect products. […]

In the next assay the target is NaPPO2 (Nicotiana attenuata, UniProt A0A1J6IKE9). As to the kind of experiment: In vitro enzyme assay, substrate specificity of NaPPO2. Type of assay: biochemical. Conditions: incubated with NaPPO2 and (Z)-3-hexenal.
Text: as §1, §2, §3, §4

Sequence of NaPPO2 (A0A1J6IKE9 entry or part of it): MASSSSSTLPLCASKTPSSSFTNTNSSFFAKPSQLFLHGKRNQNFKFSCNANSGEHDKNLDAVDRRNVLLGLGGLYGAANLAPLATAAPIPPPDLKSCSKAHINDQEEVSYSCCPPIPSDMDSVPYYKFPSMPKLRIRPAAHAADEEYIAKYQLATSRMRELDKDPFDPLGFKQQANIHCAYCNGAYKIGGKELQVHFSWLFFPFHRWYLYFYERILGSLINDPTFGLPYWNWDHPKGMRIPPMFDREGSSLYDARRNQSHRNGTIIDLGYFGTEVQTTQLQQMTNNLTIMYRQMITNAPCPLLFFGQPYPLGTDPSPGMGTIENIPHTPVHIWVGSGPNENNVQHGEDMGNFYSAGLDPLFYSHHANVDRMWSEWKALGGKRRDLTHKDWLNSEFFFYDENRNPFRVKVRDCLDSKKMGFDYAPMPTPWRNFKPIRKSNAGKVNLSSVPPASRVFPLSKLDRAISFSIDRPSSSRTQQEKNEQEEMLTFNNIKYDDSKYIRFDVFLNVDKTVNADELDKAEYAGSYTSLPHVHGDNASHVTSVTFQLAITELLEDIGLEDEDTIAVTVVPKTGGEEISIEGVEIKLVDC

Turning to N-coumaroylputrescine [CoP], the “acceptance as substrate (new products)” value on NaPPO1 and at NaPPO2 was “not accepted as substrates” each time.
